Data published in patent US9924721B2 (priority 2013, dated 2018).
Marks after values point to notes of the source that are not given here.

Assays:
Pythium ultimum = Pythium ultimum in vitro cell test; type: cell-based; settings: 4 days incubation
Experimental: Pythium ultimum In Vitro Cell Test
• Solvent: DMSO • Culture medium: 14.6 g anhydrous D-glucose (VWR), 7.1 g Mycological Peptone (Oxoid), 1.4 g granulated Yeast Extract (Merck), QSP liter • Inoculum: mycelial suspension
Fungicides were solubilized in DMSO and the solution used to prepare the required range of concentrations. The final concentration of DMSO used in the assay was ≤1%.
Inoculum was prepared from a pre-culture of P. ultimum grown in liquid medium by homogenization using a blender. The concentration of ground mycelium in the inoculum was estimated and adjusted to the desired optical density (OD).
Fungicides were evaluated for their ability to inhibit mycelium growth in liquid culture assay. The compounds were added in the desired concentrations to culture medium containing the mycelial suspension. After 4 days of incubation, the fungicidal efficacy of compounds was determined by spectrometric measurement of mycelium growth. Inhibition of fungal growth was determined by comparing the absorbance values in wells containing the fungicides with the absorbance in control wells without fungicides.

[1] = pH 2.7
Phytophthora infestans = assay: microbe, parasite or virus in culture; type: cell-based; settings: 8 days incubation
[2] = 0.25 μg/mL of active ingredient

Row | SMILES | Eff. % (inhibition of fungal growth) (Pythium ultimum; 20 μg/mL of active ingredient) [%] | Log P [1] | Eff. % (inhibition of fungal growth) (Phytophthora infestans; 20 μg/mL of active ingredient) [%] | Eff. % (inhibition of fungal growth) (Phytophthora infestans; [2]) [%] | Eff. % (inhibition of fungal growth) (Pythium ultimum; of active ingredient) [%]
1 | CCOC(=O)C(C(=O)N1CCC(c2nc(C3=NOC(c4ccccc4OS(C)(=O)=O)C3)cs2)CC1)n1nc(C)nc1C (stereo not drawn) [Example I-20] | 87 | 2.24^[a] | 100 | – | –
2 | CCCCCC(CC)OC(=O)C(Br)C(=O)N1CCC(c2nc(C3=NOC(c4ccccc4C=O)C3)cs2)CC1 (stereo not drawn) [Example I-28] | – | 4.83^[a] | 100 | – | –
3 | C#CCOc1ccccc1C1CC(c2csc(C3CCN(C(=O)C(C(=O)OC(C)C)n4nc(C(F)F)cc4C(F)F)CC3)n2)=NO1 (stereo not drawn) [Example I-09] | 97 | 3.93^[a] | 98 | – | –
4 | COCCOC(=O)CC(=O)N1CCC(c2nc(C3=NOC(c4ccccc4OS(C)(=O)=O)C3)cs2)CC1 (stereo not drawn) [Example I-46] | 97 | 2.11^[a] | 100 | – | –
5 | CCOC(=O)C(C(=O)N1CCC(c2nc(C3=NOC(c4ccccc4OS(C)(=O)=O)C3)cs2)CC1)n1nc(C(F)(F)F)cc1C (stereo not drawn) [Example I-19] | – | 3.42^[a] | 100 | – | –
6 | CCOC(=O)CC(=O)N1CCC(c2nc(C3=NOC(c4ccccc4C=O)C3)cs2)CC1 (stereo not drawn) [Example I-53] | – | 2.34^[a] | 100 | – | –
7 | CCOC(=O)C(C(=O)N1CCC(c2nc(C3=NOC(c4ccccc4OS(C)(=O)=O)C3)cs2)CC1)n1nc(C(F)(F)F)nc1C (stereo not drawn) [Example I-06] | 94 | 3.14^[a] | 100 | – | –
8 | CC(C)(C)OC(=O)C(C(=O)N1CCC(c2nc(C3=NOC(c4c(Cl)cccc4OS(C)(=O)=O)C3)cs2)CC1)n1nc(C(F)F)cc1C(F)F (stereo not drawn) [Example I-64] | – | 4.00^[a] | – | 100 | –
9 | CC(C)(C)OC(=O)C(C(=O)N1CCC(c2nc(C3=NOC(c4ccccc4OS(C)(=O)=O)C3)cs2)CC1)n1nc(C(F)F)cc1C(F)F (stereo not drawn) [Example I-66] | – | 3.74^[a] | – | 100 | –
10 | CC(C)OC(=O)CC(=O)N1CCC(c2nc(C3=NOC(c4ccccc4C=O)C3)cs2)CC1 (stereo not drawn) [Example I-56] | 84 | 2.57^[a] | 100 | – | –
11 | C#CCOc1ccccc1C1CC(c2csc(C3CCN(C(=O)C(C(=O)OCc4ccccc4)n4nc(C(F)F)cc4C(F)F)CC3)n2)=NO1 (stereo not drawn) [Example I-62] | – | 4.16^[a] | – | 100 | –
12 | CC(C)OC(=O)CC(=O)N1CCC(c2nc(C3=NOC(c4c(F)cccc4OS(C)(=O)=O)C3)cs2)CC1 (stereo not drawn) [Example I-47] | 93 | 2.53^[a] | 100 | – | –
13 | CCOC(=O)C(Br)C(=O)N1CCC(c2nc(C3=NOC(c4c(F)cccc4OS(C)(=O)=O)C3)cs2)CC1 (stereo not drawn) [Example I-27] | 100 | 2.72^[a] | 100 | – | –
14 | C#CCOc1cccc(Cl)c1C1CC(c2csc(C3CCN(C(=O)CC(=O)OCc4ccccc4)CC3)n2)=NO1 (stereo not drawn) [Example I-78] | – | 3.45^[a] | – | 88 | –
15 | CCOC(=O)C(C(=O)N1CCC(c2nc(C3=NOC(c4ccccc4OS(C)(=O)=O)C3)cs2)CC1)n1nc(C(F)F)cc1C(F)F (stereo not drawn) [Example I-11] | 97 | 3.28^[a] | 100 | – | –
16 | CCOC(=O)C(Br)C(=O)N1CCC(c2nc(C3=NOC(c4ccccc4OS(C)(=O)=O)C3)cs2)CC1 (stereo not drawn) [Example I-33] | 99 | 2.72^[a] | 100 | – | –
17 | CC(C)OC(=O)C(C(=O)N1CCC(c2nc(C3=NOC(c4c(F)cccc4OS(C)(=O)=O)C3)cs2)CC1)n1nc(C(F)F)cc1C(F)F (stereo not drawn) [Example I-17] | – | 3.49^[a] | – | 100 | 99
18 | C#CCOc1cccc(F)c1C1CC(c2csc(C3CCN(C(=O)C(C(=O)OC(C)C)n4nc(C(F)F)cc4C(F)F)CC3)n2)=NO1 (stereo not drawn) [Example I-07] | – | 3.81^[a] | – | 100 | 97
19 | CCOC(=O)C(Br)C(=O)N1CCC(c2nc(C3=NOC(c4ccccc4C=O)C3)cs2)CC1 (stereo not drawn) [Example I-25] | – | 2.82^[a] | 100 | – | –
20 | CCCCCC(CC)OC(=O)CC(=O)N1CCC(c2nc(C3=NOC(c4ccccc4OS(C)(=O)=O)C3)cs2)CC1 (stereo not drawn) [Example I-45] | – | 4.07^[a] | 100 | – | –
21 | CCOC(=O)CC(=O)N1CCC(c2nc(C3=NOC(c4c(Cl)cccc4OS(C)(=O)=O)C3)cs2)CC1 (stereo not drawn) [Example I-49] | 88 | 2.53^[a] | 100 | – | –

Row | SMILES | Eff. % (inhibition of fungal growth) (Pythium ultimum; 20 μg/mL of active ingredient) [%] | Log P [1] | Eff. % (inhibition of fungal growth) (Phytophthora infestans; 20 μg/mL of active ingredient) [%] | Eff. % (inhibition of fungal growth) (Phytophthora infestans; [2]) [%] | Eff. % (inhibition of fungal growth) (Pythium ultimum; of active ingredient) [%]
22 | CC(C)OC(=O)CC(=O)N1CCC(c2nc(C3=NOC(c4ccccc4OS(C)(=O)=O)C3)cs2)CC1 (stereo not drawn) [Example I-58] | – | 2.56^[a] | 100 | – | –
23 | C#CCOc1cccc(F)c1C1CC(c2csc(C3CCN(C(=O)CC(=O)OC(CC)CCCCC)CC3)n2)=NO1 (stereo not drawn) [Example I-40] | 93 | 4.42^[a] | 100 | – | –
24 | C#CCOc1ccccc1C1CC(c2csc(C3CCN(C(=O)CC(=O)OC(C)C)CC3)n2)=NO1 (stereo not drawn) [Example I-52] | 86 | 2.94^[a] | 87 | – | –
25 | CCCCCC(CC)OC(=O)C(C(=O)N1CCC(c2nc(C3=NOC(c4ccccc4OS(C)(=O)=O)C3)cs2)CC1)n1nc(C(F)F)cc1C(F)F (stereo not drawn) [Example I-10] | – | 4.96^[a] | 97 | – | –
26 | CS(=O)(=O)Oc1cccc(Cl)c1C1CC(c2csc(C3CCN(C(=O)C(C(=O)OCc4ccccc4)n4nc(C(F)F)cc4C(F)F)CC3)n2)=NO1 (stereo not drawn) [Example I-61] | – | 3.98^[a] | – | 100 | –
27 | C#CCOc1ccccc1C1CC(c2csc(C3CCN(C(=O)C(C(=O)OC(C)(C)C)n4nc(C(F)F)cc4C(F)F)CC3)n2)=NO1 (stereo not drawn) [Example I-65] | – | 4.16^[a] | – | 100 | 91
28 | CCOC(=O)CC(=O)N1CCC(c2nc(C3=NOC(c4ccccc4OS(C)(=O)=O)C3)cs2)CC1 (stereo not drawn) [Example I-50] | 94 | 2.30^[a] | 98 | – | –
29 | C#CCOc1cccc(F)c1C1CC(c2csc(C3CCN(C(=O)C(C(=O)OCC)n4nc(C(F)F)cc4C(F)F)CC3)n2)=NO1 (stereo not drawn) [Example I-04] | 92 | 3.57^[a] | – | 100 | –
30 | C#CCOc1cccc(F)c1C1CC(c2csc(C3CCN(C(=O)C(Br)C(=O)OCC)CC3)n2)=NO1 (stereo not drawn) [Example I-26] | 100 | 2.98^[a] | 100 | – | –
31 | C#CCOc1cccc(Cl)c1C1CC(c2csc(C3CCN(C(=O)C(Br)C(=O)OC(C)(C)C)CC3)n2)=NO1 (stereo not drawn) [Example I-71] | – | 3.84^[a] | – | 100 | –
32 | CC(C)OC(=O)C(Br)C(=O)N1CCC(c2nc(C3=NOC(c4c(F)cccc4OS(C)(=O)=O)C3)cs2)CC1 (stereo not drawn) [Example I-23] | – | 2.97^[a] | – | 100 | –
33 | CCOC(=O)C(C(=O)N1CCC(c2nc(C3=NOC(c4ccccc4OS(C)(=O)=O)C3)cs2)CC1)n1cc(C(F)(F)F)nc1C (stereo not drawn) [Example I-12] | – | 2.99^[a] | – | – | –
34 | COCCOC(=O)C(Br)C(=O)N1CCC(c2nc(C3=NOC(c4ccccc4OS(C)(=O)=O)C3)cs2)CC1 (stereo not drawn) [Example I-36] | – | 2.53^[a] | – | – | –
35 | CCOC(=O)C(Br)C(=O)N1CCC(c2nc(C3=NOC(c4c(Cl)cccc4OS(C)(=O)=O)C3)cs2)CC1 (stereo not drawn) [Example I-34] | 94 | 2.92^[a] | 100 | – | –
36 | CC(C)OC(=O)C(C(=O)N1CCC(c2nc(C3=NOC(c4ccccc4C=O)C3)cs2)CC1)n1nc(C(F)F)cc1C(F)F (stereo not drawn) [Example I-13] | – | 3.70^[a] | – | 94 | –
37 | C#CCOc1cccc(Cl)c1C1CC(c2csc(C3CCN(C(=O)C(C(=O)OC(C)(C)C)n4nc(C(F)F)cc4C(F)F)CC3)n2)=NO1 (stereo not drawn) [Example I-63] | – | 4.31^[a] | – | 100 | 90
38 | C#CCOc1cccc(Cl)c1C1CC(c2csc(C3CCN(C(=O)C(C(=O)OCc4ccccc4)n4nc(C(F)F)cc4C(F)F)CC3)n2)=NO1 (stereo not drawn) [Example I-59] | – | 4.28^[a] | – | 100 | –
39 | C#CCOc1cccc(F)c1C1CC(c2csc(C3CCN(C(=O)C(Br)C(=O)OCCOC)CC3)n2)=NO1 (stereo not drawn) [Example I-24] | – | 2.85^[a] | – | – | –
40 | CC(C)(C)OC(=O)CC(=O)N1CCC(c2nc(C3=NOC(c4c(Cl)cccc4OS(C)(=O)=O)C3)cs2)CC1 (stereo not drawn) [Example I-79] | – | 3.04^[a] | – | – | –
41 | C#CCOc1cccc(Cl)c1C1CC(c2csc(C3CCN(C(=O)C(Br)C(=O)OCc4ccccc4)CC3)n2)=NO1 (stereo not drawn) [Example I-69] | – | 3.85^[a] | – | – | –
42 | C#CCOc1cccc(Cl)c1C1CC(c2csc(C3CCN(C(=O)CC(=O)OC(C)(C)C)CC3)n2)=NO1 (stereo not drawn) [Example I-80] | – | 3.36^[a] | – | 100 | –
